Experimental data taken from PubChem BioAssay (NCI).
“And” between values parts separate entries of the source, which are not always exact repeats. Identical values can stand only once.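 A five-concentration, 48-hour dose response in 96-well plates underlies each endpoint, interpolated linearly between surrounding concentrations. GI50 is the concentration that inhibits growth by half. TGI is the concentration that stops growth completely.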

Experiments:
Experiment in all cases: NCI tumour cell line growth inhibition, 48 h
DMS 273 small cell lung = system: DMS 273 small cell lung
EKVX NSCLC = system: EKVX NSCLC
HOP-18 NSCLC = system: HOP-18 NSCLC
HOP-62 NSCLC = system: HOP-62 NSCLC
KM20L2 colon = system: KM20L2 colon
M19-MEL melanoma = system: M19-MEL melanoma
OVCAR-3 ovarian = system: OVCAR-3 ovarian
RPMI-8226 leukemia = system: RPMI-8226 leukemia
SNB-78 CNS = system: SNB-78 CNS
SW-620 colon = system: SW-620 colon
U251 CNS = system: U251 CNS
XF 498 CNS = system: XF 498 CNS
T-47D breast = system: T-47D breast

| Structure (SMILES) | TGI (DMS 273 small cell lung) | GI50 (EKVX NSCLC) | TGI (EKVX NSCLC) | TGI (HOP-18 NSCLC) | TGI (HOP-62 NSCLC) | TGI (KM20L2 colon) | TGI (M19-MEL melanoma) | TGI (OVCAR-3 ovarian) | TGI (RPMI-8226 leukemia) | TGI (SNB-78 CNS) | TGI (SW-620 colon) | TGI (U251 CNS) | TGI (XF 498 CNS) | TGI (T-47D breast) | GI50 (T-47D breast) | GI50 (OVCAR-3 ovarian) | GI50 (SW-620 colon) |
| --- | --- | --- | --- | --- | --- | --- | --- | --- | --- | --- | --- | --- | --- | --- | --- | --- | --- |
| COc1cc(/C=C(\C#N)C(N)=O)cc(Br)c1O | > 100 µM | 45.8 µM and > 100 µM | > 100 µM | > 100 µM | > 100 µM | > 100 µM | > 100 µM | > 100 µM | > 100 µM | > 100 µM | > 100 µM | > 100 µM | > 100 µM | – | – | – | – |
| COC1C=CC(O)C(CO)O1 (centres undefined) | – | – | > 100 µM | – | > 100 µM | > 100 µM | > 100 µM | > 100 µM | – | > 100 µM | > 100 µM | > 100 µM | > 100 µM | – | – | – | – |
| COc1ccc(C(=C(Cl)c2ccccc2)c2ccc(OC)cc2)cc1 | – | – | > 100 µM | – | > 100 µM | – | – | > 100 µM | > 100 µM | – | > 100 µM | > 100 µM | – | > 100 µM | – | – | – |
| Nc1cc2[nH]c(=O)c(=O)[nH]c2cc1N | – | – | > 100 µM | – | > 100 µM | – | – | > 100 µM | > 100 µM | – | > 100 µM | > 100 µM | – | > 100 µM | – | – | – |
| CC(C)=CCC/C(C)=C/C=C/C(C)=C/C=C/C(C)=C/C=C/C=C(C)/C=C/C=C(C)/C=C/[C@H]1C(C(C)(C)O)CC[C@]1(C)O (some centres undefined) | – | – | > 100 µM | – | 40.8 µM | – | – | 37.8 µM | 54.5 µM | – | 65.8 µM | 47.4 µM | – | > 100 µM | – | – | – |
| O=C1CCC(c2ccc(Cl)cc2)=NN1c1nsc2ccccc12 | 74.5 µM | – | 88.5 µM | > 100 µM | > 100 µM | > 100 µM | > 100 µM | 44.7 µM | 42.6 µM | 78.7 µM | > 100 µM | > 100 µM | – | – | – | – | – |
| Cc1cn(C2CC(N(O)Cc3ccccc3)C(CO[Si](C)(C)C(C)(C)C)O2)c(=O)[nH]c1=O (centres undefined) | – | – | > 100 µM and 33.9 µM | – | 36.5 µM and 29.9 µM | – | – | 32 µM | > 100 µM | – | 69.2 µM and 34.1 µM | 38.6 µM and 28.4 µM | – | > 100 µM and 33.6 µM | 61.7 µM and 18.6 µM | – | – |
| CC1NC(=O)CC(c2ccccc2)N(N=O)C1c1ccccc1 (centres undefined) | > 75.1 µM | – | > 100 µM | > 100 µM | > 92.7 µM | 40 µM | > 100 µM | > 100 µM | 90.8 µM | > 91.8 µM | > 31.6 µM | > 100 µM | 75.3 µM | – | – | – | – |
| O=C1CC(=Nc2ccc(Cl)cc2)C(c2ccccc2)N1c1ccccc1 (centres undefined) | – | – | > 100 µM | – | > 100 µM | – | – | 14.5 µM | 13.1 µM | – | > 100 µM | > 100 µM | – | 6.27 µM | – | – | – |
| O=Cc1ccc(OCc2cccc(COc3ccc(/C=N\Nc4ccc([N+](=O)[O-])cc4[N+](=O)[O-])cc3)n2)cc1 | – | – | > 100 µM | – | > 100 µM | – | – | > 100 µM | > 100 µM | – | > 100 µM | > 100 µM | – | > 100 µM | – | – | – |
| CCOC(=O)/C=C(/C(=O)OCC)n1ccc(=O)n(Cc2cn(COCCOC(C)=O)nn2)c1=O | – | – | 30.6 µM | – | > 100 µM | – | – | 33.4 µM | 50.3 µM | – | 29 µM | 83.3 µM | – | 81 µM | – | – | – |
| CSc1ncnc2c1ncn2C1CC(Oc2ccc(C)cc2)C(COc2ccc(C)cc2)O1 (centres undefined) | – | – | > 100 µM | – | > 100 µM | – | – | > 100 µM | > 100 µM | – | > 100 µM | > 100 µM | – | > 100 µM | – | – | – |
| CON(C)C(=O)CNC(=O)OCC1c2ccccc2-c2ccccc21 | – | – | > 100 µM | – | > 100 µM | – | – | > 100 µM | 91.7 µM | – | > 100 µM | > 100 µM | – | > 100 µM | – | – | – |
| CSc1ccc2c(cc1=O)[C@@H](NC(=O)c1ccc(N)cc1)CCc1cc(O)c(O)c(O)c1-2 | – | – | > 100 µM | – | 27.8 µM and 34.7 µM | – | – | 40.8 µM and 19.5 µM | > 75 µM and 94.2 µM | – | > 100 µM | 57.3 µM and > 100 µM | – | > 100 µM | – | 17.5 µM and 4.17 µM | 18.7 µM and 8.21 µM |
| CCCCN1C(=O)N(c2ccc(OCC)cc2)C2N(CCCC)C1C(C)(C)C2(C)C (centres undefined) | – | – | 50.6 µM | – | > 100 µM | – | – | 54 µM | 42 µM | – | > 100 µM | > 100 µM | – | > 100 µM | – | – | – |
| COc1cc(/C=C2/C[C@H]3[C@@H]4CC=C5C[C@@H](O)CC[C@]5(C)[C@H]4CC[C@]3(C)NC2=O)cc(OC)c1OC | – | – | > 92.8 µM | – | > 89.1 µM | – | – | > 100 µM | > 44.4 µM | – | > 100 µM | > 60.1 µM | – | > 100 µM | – | – | – |
| COc1cccc(-c2ccc3c4c2O[C@H]2C(=O)CC[C@@]5(O)[C@@H](C3)N(CC3CC3)CC[C@]425)c1 | – | – | 41 µM | – | 35.4 µM | – | – | 27.6 µM | 30.9 µM | – | 29.2 µM | 29.9 µM | – | 41.6 µM | – | – | – |
